Values quoted from earlier work in US20120309722A1, “THERAPEUTIC REGIMENS FOR THE TREATMENT OF IMMUNOINFLAMMATORY DISORDERS” (priority 2007, published 2012).

Legend:
[1] = BNF guidelines; for Equivalent Dose to Prednisolone: Equal to 1 mg prednisolone: dose equivalent to 1 mg prednisolone; for Equivalent Dose to Prednisolone: Equal to 5 mg prednisolone: dose equivalent to 5 mg prednisolone
[2] = nasal administration; BNF 37 March 1999

## methyl prednisone
[1]
  Equivalent Dose to Prednisolone: Equal to 1 mg prednisolone: 0.8 mg
  Equivalent Dose to Prednisolone: Equal to 5 mg prednisolone: 4 mg

## C[C@]12CCC(=O)C=C1CC[C@@H]1[C@@H]2[C@@H](O)C[C@@]2(C)[C@H]1CC[C@]2(O)C(=O)CO [hydrocortisone]
[1]
  Equivalent Dose to Prednisolone: Equal to 1 mg prednisolone: 4 mg
  Equivalent Dose to Prednisolone: Equal to 5 mg prednisolone: 20 mg

## CC(=O)OCC(=O)[C@@]12N=C(C)O[C@@H]1C[C@H]1[C@@H]3CCC4=CC(=O)C=C[C@]4(C)[C@H]3[C@@H](O)C[C@@]12C [deflazacort]
[1]
  Equivalent Dose to Prednisolone: Equal to 1 mg prednisolone: 1.2 mg
  Equivalent Dose to Prednisolone: Equal to 5 mg prednisolone: 6 mg

## CC(=O)OCC(=O)[C@@]1(O)CC[C@H]2[C@@H]3CCC4=CC(=O)CC[C@]4(C)[C@H]3C(=O)C[C@@]21C [cortisone acetate]
[1]
  Equivalent Dose to Prednisolone: Equal to 1 mg prednisolone: 5 mg
  Equivalent Dose to Prednisolone: Equal to 5 mg prednisolone: 25 mg

## C[C@]12C=CC(=O)C=C1CC[C@H]1[C@@H]3C[C@@H](O)[C@](O)(C(=O)CO)[C@@]3(C)C[C@H](O)[C@@]12F [triamcinolone]
[2]
  broadly similar dose from clinical dosing equivalence: 110 µg
[1]
  Equivalent Dose to Prednisolone: Equal to 1 mg prednisolone: 0.8 mg
  Equivalent Dose to Prednisolone: Equal to 5 mg prednisolone: 4 mg
